From patent publication US20250171432A1, “COMPOUNDS AND METHODS OF USE” (Tango Therapeutics, Inc., priority 2022, published 2025)

Columns and labels:
Type in all cases: cell-based
[1] = test system: SDMA (PRMT5 activity) in HAP1 MTAP-intact cell line; assay: SDMA in-cell western assay, HAP1 MTAP-intact; conditions: Homo sapiens, HAP1, 24 h, SDMA in-cell western, HAP1 MTAP-intact cells, 24 hours compound incubation
[2] = test system: HAP1 MTAP-deleted cell line; assay: Viability assay (CellTiter-Glo), HAP1 MTAP-deleted; conditions: Homo sapiens, 168 h, HAP1 MTAP-deleted cells, 7 days
How it was run: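 HAP1 MTAP-deleted and MTAP-intact cells seeded, then dosed next day (n=3, 0.2% DMSO) and grown 7 days. Viability by CellTiter-Glo luminescence, expressed as % of DMSO control per cell line.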

[3] = test system: SDMA (PRMT5 activity) in HAP1 MTAP-deleted cell line; assay: SDMA in-cell western assay, HAP1 MTAP-deleted; conditions: for IC50 / IC90: Homo sapiens, SDMA in-cell western, HAP1 MTAP-deleted cells, 24 hours compound incubation; for Hap1 MTAP intact/deleted ratio: ratio of SDMA IC50 in HAP1 MTAP-intact to HAP1 MTAP-deleted cell line

SMILES	IC50 [1]	IC50 [2]	IC50 [3]	IC90 [3]	Hap1 MTAP intact/deleted ratio [3]
CCc1cc(NC(=O)C(=O)N2C[C@@H](C)CC[C@@H]2c2ccc3sc([C@H]4C[C@@H](N(C)C)C4)nc3c2)cnc1N [Compound 40, N-(6-amino-5-ethyl-3-pyridyl)-2-oxo-2-[(2R,5S)-2-[2-[3-(dimethylamino)cyclobutyl]-1,3-benzothiazol-5-yl]-5-methyl-1-piperidyl]acetamide]	> 50 nM	< 100 nM	< 5 nM	< 75 nM	A (“A” indicates an IC50 ratio greater than or equal to 30 fold)
CCc1cc(NC(=O)C(=O)N2C[C@@H](C)CC[C@@H]2c2ccc3sc([C@@H]4C[C@@H](C)CN(C)C4)nc3c2)cnc1N (relative stereo) [Compound 23, N-(6-amino-5-ethylpyridin-3-yl)-2-((2R,5S)-2-(2-(1,5-dimethylpiperidin-3-yl)benzo[d]thiazol-5-yl)-5-methylpiperidin-1-yl)-2-oxoacetamide]	5 to 50 nM	< 100 nM	< 5 nM	< 75 nM	B (“B” indicates an IC50 ratio greater than or equal to 15 fold but lower than 30 fold)
CCc1cc(NC(=O)C(=O)N2C[C@@H](C)CC[C@@H]2c2ccc3cn([C@H]4CCOC4)nc3c2)cnc1N (racemic) [Compound 93, N-(6-amino-5-ethyl-3-pyridyl)-2-oxo-2-[rac-(2R,5S)-5-methyl-2-(2-tetrahydrofuran-3-ylindazol-6-yl)-1-piperidyl]acetamide]	> 50 nM	< 100 nM	5 to 50 nM	< 75 nM	A (“A” indicates an IC50 ratio greater than or equal to 30 fold)
CCc1cc(NC(=O)C(=O)N2C[C@@H](C)CC[C@@H]2c2ccc3sc([C@H]4CN(C)CC(C)(C)C4)nc3c2)cnc1N (single isomer, unassigned) [Compound 45]	5 to 50 nM	< 100 nM	< 5 nM	< 75 nM	B (“B” indicates an IC50 ratio greater than or equal to 15 fold but lower than 30 fold)
COc1ncc(NC(=O)C(=O)N2CCCC[C@@H]2c2ccc3sc(C4CCN(C)CC4)nc3c2)cc1C(N)=O [Compound 29, 2-methoxy-5-(2-(2-(2-(1-methylpiperidin-4-yl)benzo[d]thiazol-5-yl)piperidin-1-yl)-2-oxoacetamido)nicotinamide]	> 50 nM	100 to 1000 nM	5 to 50 nM	> 125 nM	A (“A” indicates an IC50 ratio greater than or equal to 30 fold)
CCc1cc(NC(=O)C(=O)N2CCCC[C@@H]2c2ccc3sc(C4CCN(C)CC4)nc3c2)cnc1N [Compound 73, N-(6-amino-5-ethylpyridin-3-yl)-2-(2-(2-(1-methylpiperidin-4-yl)benzo[d]thiazol-5-yl)piperidin-1-yl)-2-oxoacetamide]	> 50 nM	100 to 1000 nM	5 to 50 nM	75 to 125 nM	A (“A” indicates an IC50 ratio greater than or equal to 30 fold)
COc1ncc(NC(=O)C(=O)N2C[C@@H](C)CC[C@@H]2c2cccc(OC[C@@H](C)N(C)C)c2)cc1C(N)=O [Compound 49, 5-(2-((2R,5S)-2-(3-((R)-2-(dimethylamino)propoxy)phenyl)-5-methylpiperidin-1-yl)-2-oxoacetamido)-2-methoxynicotinamide]	> 50 nM	100 to 1000 nM	< 5 nM	< 75 nM	A (“A” indicates an IC50 ratio greater than or equal to 30 fold)
CCc1cc(NC(=O)C(=O)N2C[C@@H](C)CC[C@@H]2c2ccc3c(c2)OC2(CCN(C)CC2)C3)cnc1N [Compound 31, N-(6-amino-5-ethylpyridin-3-yl)-2-((2R,5S)-5-methyl-2-(1′-methyl-3H-spiro[benzofuran-2,4′-piperidin]-6-yl)piperidin-1-yl)-2-oxoacetamide]	> 50 nM	100 to 1000 nM	5 to 50 nM	> 125 nM	A (“A” indicates an IC50 ratio greater than or equal to 30 fold)
CCc1cc(NC(=O)C(=O)N2C[C@@H](C)CC[C@@H]2c2ccc3cn([C@@H]4C[C@@H](C)CN(C)C4)nc3c2)cnc1N (relative stereo) [Compound 60, N-(6-amino-5-ethylpyridin-3-yl)-2-((2R,5S)-2-(2-(1,5-dimethylpiperidin-3-yl)-2H-indazol-6-yl)-5-methylpiperidin-1-yl)-2-oxoacetamide]	> 50 nM	< 100 nM	< 5 nM	< 75 nM	A (“A” indicates an IC50 ratio greater than or equal to 30 fold)
COc1ncc(NC(=O)C(=O)N2C[C@@H](C)CC[C@@H]2c2ccc3sc([C@@H](C)CN(C)C)nc3c2)cc1C(N)=O [Compound 14, 2-methoxy-5-[[2-oxo-2-[(2R,5S)-5-methyl-2-[2-[(^1R)-2-(dimethylamino)-1-methyl-ethyl]-1,3-benzothiazol-5-yl]-1-piperidyl]acetyl]amino]pyridine-3-carboxamide]	5 to 50 nM	< 100 nM	< 5 nM	< 75 nM	B (“B” indicates an IC50 ratio greater than or equal to 15 fold but lower than 30 fold)
CCc1cc(NC(=O)C(=O)N2C[C@@H](C)CC[C@@H]2c2ccc3sc(C4CN(C)CC(=O)N4C)nc3c2)cnc1N (mixture of isomers) [Compound 125, N-(6-amino-5-ethylpyridin-3-yl)-2-((2R,5S)-2-(2-(1,4-dimethyl-6-oxopiperazin-2-yl)benzo[d]thiazol-5-yl)-5-methylpiperidin-1-yl)-2-oxoacetamide]	> 50 nM	< 100 nM	5 to 50 nM	75 to 125 nM	B (“B” indicates an IC50 ratio greater than or equal to 15 fold but lower than 30 fold)
CCc1cc(NC(=O)C(=O)N2C[C@@H](C)CC[C@@H]2c2ccc3cccnc3c2)cnc1N [Compound 76, N-(6-amino-5-ethylpyridin-3-yl)-2-((2R,5S)-5-methyl-2-(quinolin-7-yl)piperidin-1-yl)-2-oxoacetamide]	> 50 nM	100 to 1000 nM	5 to 50 nM	> 125 nM	A (“A” indicates an IC50 ratio greater than or equal to 30 fold)
CCc1cc(NC(=O)C(=O)N2C[C@@H](C)CC[C@@H]2c2ccc3sc([C@H]4CN5CC[C@@H]4C5)nc3c2)cnc1N (racemic) [Compound 21, 2-((2R,5S)-2-(2-(1-azabicyclo[2.2.1]heptan-3-yl)benzo[d]thiazol-5-yl)-5-methylpiperidin-1-yl)-N-(6-amino-5-ethylpyridin-3-yl)-2-oxoacetamide]	5 to 50 nM	< 100 nM	< 5 nM	< 75 nM	C (“C” indicates an IC50 ratio of less than 15 fold)
COc1ncc(NC(=O)C(=O)N2C[C@@H](C)CC[C@@H]2c2ccc3cn(CCN(C)C)nc3c2)cc1C(N)=O [Compound 7, 2-methoxy-5-[[2-oxo-2-[(2R,5S)-2-[2-[2-(dimethylamino)ethyl]indazol-6-yl]-5-methyl-1-piperidyl]acetyl]amino]pyridine-3-carboxamide]	> 50 nM	< 100 nM	5 to 50 nM	< 75 nM	A (“A” indicates an IC50 ratio greater than or equal to 30 fold)
CCc1cc(NC(=O)C(=O)N2C[C@@H](C)CC[C@@H]2c2ccc3nn([C@@H]4CCN(C)C(C)(C)C4)cc3c2)cnc1N [Compound 108]	5 to 50 nM	< 100 nM	< 5 nM	< 75 nM	B (“B” indicates an IC50 ratio greater than or equal to 15 fold but lower than 30 fold)
COc1ncc(NC(=O)C(=O)N2C[C@@H](C)CC[C@@H]2c2ccc3cc(C#N)c(C4CCN(C)CC4)nc3c2)cc1C(N)=O [Compound 113, 5-(2-((2R,5S)-2-(3-cyano-2-(1-methylpiperidin-4-yl)quinolin-7-yl)-5-methylpiperidin-1-yl)-2-oxoacetamido)-2-methoxynicotinamide]	> 50 nM	< 100 nM	< 5 nM	< 75 nM	A (“A” indicates an IC50 ratio greater than or equal to 30 fold)
CCc1cc(NC(=O)C(=O)N2C[C@@H](C)CC[C@@H]2c2ccc3sc([C@@H](C)CN4CCCC4)nc3c2)cnc1N [Compound 47]	> 50 nM	< 100 nM	< 5 nM	< 75 nM	A (“A” indicates an IC50 ratio greater than or equal to 30 fold)
CCc1cc(NC(=O)C(=O)N2C[C@@H](C)CC[C@@H]2c2ccc3sc(CC4CCN(C)CC4)nc3c2)cnc1N [Compound 41, N-(6-amino-5-ethylpyridin-3-yl)-2-((2R,5S)-5-methyl-2-(2-((1-methylpiperidin-4-yl)methyl)benzo[d]thiazol-5-yl)piperidin-1-yl)-2-oxoacetamide]	5 to 50 nM	< 100 nM	< 5 nM	< 75 nM	B (“B” indicates an IC50 ratio greater than or equal to 15 fold but lower than 30 fold)
COc1ncc(NC(=O)C(=O)N2C[C@@H](C)CC[C@@H]2c2ccc3sc([C@H](C)N(C)C)nc3c2)cc1C(N)=O [Compound 96, 2-methoxy-5-[[2-oxo-2-[(2R,5S)-5-methyl-2-[2-[(1S)-1-(dimethylamino)ethyl]-1,3-benzothiazol-5-yl]-1-piperidyl]acetyl]amino]pyridine-3-carboxamide]	> 50 nM	< 100 nM	5 to 50 nM	75 to 125 nM	A (“A” indicates an IC50 ratio greater than or equal to 30 fold)
